Test results published in patent US20210101874A1, “MICROBIOCIDAL OXADIAZOLE DERIVATIVES” (SYNGENTA PARTICIPATIONS AG, priority 2017, published 2021).

How the values were obtained:
[1] = test system: Glomerella lagenarium (Colletotrichum lagenarium); assay: Glomerella lagenarium (Colletotrichum lagenarium) liquid culture / cucumber / preventative (anthracnose); assay type: cell-based; conditions: Colletotrichum orbiculare; 20 ppm in the applied formulation; conidia in PDB nutrient broth, 24° C.; 3 to 4 days after application; compared to untreated; read-out: disease control (inhibition of growth measured photometrically)
Method in brief: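 Cryostored conidia in potato dextrose broth added to compound diluted from DMSO solution, 96-well format. Plates incubated at 24 °C. Growth inhibition read photometrically 3 to 4 days after application, as percent activity versus untreated check.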

[2] = test system: Puccinia recondita f. sp. Tritici; assay: Puccinia recondita f. sp. tritici / wheat / leaf disc preventative (brown rust); assay type: in vivo; conditions: foliar, 200 ppm in the applied formulation, wheat leaf segments cv. Kanzler, inoculated 1 day after application, compared to untreated, assessed 7 to 9 days after application, read-out: disease control
Method in brief: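 Wheat leaf segments (cv. Kanzler) on water agar were sprayed with test compound (DMSO stock diluted in 0.025% Tween20/water), then spore-inoculated 1 day later. Incubation at 19° C., 75% rh, 12 h light/12 h dark; percent disease control versus untreated segments scored 7 to 9 days after application. Tested at 200 ppm.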

[3] = test system: Puccinia recondita f. sp. Tritici; assay: Puccinia recondita f. sp. tritici / wheat / leaf disc curative (brown rust); assay type: in vivo; conditions: foliar, 200 ppm in the applied formulation, wheat leaf segments cv. Kanzler, applied 1 day after inoculation, compared to untreated, assessed 6 to 8 days after application, read-out: disease control
Protocol: Leaf disks or leaf segments of various plant species are cut from plants grown in a greenhouse. The cut leaf disks or segments are placed in multiwell plates (24-well format) onto water agar. The leaf disks are sprayed with a test solution before (preventative) or after (curative) inoculation. Compounds to be tested are prepared as DMSO solutions (max. 10 mg/ml) which are diluted to the appropriate concentration with 0.025% Tween20 just before spraying. The inoculated leaf disks or segments are incubated under defined conditions (temperature, relative humidity, light, etc.) according to the respective test system. A single evaluation of disease level is carried out 3 to 14 days after inoculation, depending on the pathosystem. Percent disease control relative to the untreated check leaf disks or segments is then calculated.
Wheat leaf segments cv. Kanzler are placed on agar in multiwell plates (24-well format). The leaf segments are then inoculated with a spore suspension of the fungus. Plates were stored in darkness at 19° C. and 75% relative humidity. The formulated test compound diluted in water was applied 1 day after inoculation. The leaf segments were incubated at 19° C. and 75% relative humidity under a light regime of 12 hours light/12 hours darkness in a climate cabinet and the activity of a compound was assessed as percent disease control compared to untreated when an appropriate level of disease damage appears in untreated check leaf segments (6 to 8 days after application).
The following compounds at 200 ppm in the applied formulation give at least 80% disease control in this test when compared to untreated control leaf disks under the same conditions, which show extensive disease development.

CS(=O)(=O)NCc1ccc(-c2noc(C(F)(F)F)n2)cc1 [Compound 2.13, N-[[4-[5-(trifluoromethyl)-1,2,4-oxadiazol-3-yl]phenyl]methyl] methanesulfon-amide]
≥ 80%: inhibition at 20 ppm [1] | pest or weed control at 200 ppm [2] | pest or weed control at 200 ppm [3]

CNS(=O)(=O)NCc1ccc(-c2noc(C(F)(F)F)n2)cc1 [Compound 2.14, N-(methylsulfamoyl)-1-[4-[5-(trifluoromethyl)-1,2,4-oxadiazol-3-yl]phenyl] methanamine]
≥ 80%: inhibition at 20 ppm [1] | pest or weed control at 200 ppm [2] | pest or weed control at 200 ppm [3]

C=CCS(=O)(=O)NCc1ccc(-c2noc(C(F)(F)F)n2)c(F)c1 [Compound 2.15, N-[[3-fluoro-4-[5-(trifluoromethyl)-1,2,4-oxadiazol-3-yl]phenyl]methyl] prop-2-ene-1-sulfonamide]
≥ 80%: inhibition at 20 ppm [1] | pest or weed control at 200 ppm [2] | pest or weed control at 200 ppm [3]

COC(=O)CCS(=O)(=O)NCc1ccc(-c2noc(C(F)(F)F)n2)c(F)c1 [Compound 2.16, methyl 3-[[3-fluoro-4-[5-(trifluoromethyl)-1,2,4-oxadiazol-3-yl]phenyl]methyl-sulfamoyl] propanoate]
≥ 80%: inhibition at 20 ppm [1] | pest or weed control at 200 ppm [2] | pest or weed control at 200 ppm [3]

COCCS(=O)(=O)NCc1ccc(-c2noc(C(F)(F)F)n2)c(F)c1 [Compound 2.17, N-[[3-fluoro-4-[5-(trifluoromethyl)-1,2,4-oxadiazol-3-yl]phenyl]methyl]-2-methoxy-ethanesulfon-amide]
≥ 80%: inhibition at 20 ppm [1] | pest or weed control at 200 ppm [2] | pest or weed control at 200 ppm [3]

C/C=C/S(=O)(=O)NCc1ccc(-c2noc(C(F)(F)F)n2)c(F)c1 [Compound 2.19, (E)-N-[[3-fluoro-4-[5-(trifluoromethyl)-1,2,4-oxadiazol-3-yl]phenyl]methyl] prop-1-ene-1-sulfonamide]
≥ 80%: inhibition at 20 ppm [1] | pest or weed control at 200 ppm [2] | pest or weed control at 200 ppm [3]

CCS(=O)(=O)NCc1ccc(-c2noc(C(F)(F)F)n2)c(F)c1 [Compound 2.24, N-[[3-fluoro-4-[5-(trifluoromethyl)-1,2,4-oxadiazol-3-yl]phenyl]methyl] ethanesulfon-amide]
≥ 80%: inhibition at 20 ppm [1] | pest or weed control at 200 ppm [2] | pest or weed control at 200 ppm [3]

CCS(=O)(=O)NCc1ccc(-c2noc(C(F)(F)F)n2)cc1F [Compound 2.25, N-[[2-fluoro-4-[5-(trifluoromethyl)-1,2,4-oxadiazol-3-yl]phenyl]methyl] ethanesulfon-amide]
≥ 80%: inhibition at 20 ppm [1] | pest or weed control at 200 ppm [2] | pest or weed control at 200 ppm [3]

CS(=O)(=O)NCc1ccc(-c2noc(C(F)(F)F)n2)c(F)c1 [Compound 2.26, N-[[3-fluoro-4-[5-(trifluoromethyl)-1,2,4-oxadiazol-3-yl]phenyl]methyl] methanesulfon-amide]
≥ 80%: inhibition at 20 ppm [1] | pest or weed control at 200 ppm [2] | pest or weed control at 200 ppm [3]

CS(=O)(=O)NCc1ccc(-c2noc(C(F)(F)F)n2)cc1F [Compound 2.27, N-[[2-fluoro-4-[5-(trifluoromethyl)-1,2,4-oxadiazol-3-yl]phenyl]methyl] methanesulfon-amide]
≥ 80%: inhibition at 20 ppm [1] | pest or weed control at 200 ppm [2] | pest or weed control at 200 ppm [3]

CNS(=O)(=O)NCc1ccc(-c2noc(C(F)(F)F)n2)c(F)c1 [Compound 2.28, 1-[3-fluoro-4-[5-(trifluoromethyl)-1,2,4-oxadiazol-3-yl]phenyl]-N-(methylsulfamoyl) methanamine]
≥ 80%: inhibition at 20 ppm [1] | pest or weed control at 200 ppm [2] | pest or weed control at 200 ppm [3]

CNS(=O)(=O)NCc1ccc(-c2noc(C(F)(F)F)n2)cc1F [Compound 2.29, 1-[2-fluoro-4-[5-(trifluoromethyl)-1,2,4-oxadiazol-3-yl]phenyl]-N-(methylsulfamoyl) methanamine]
≥ 80%: inhibition at 20 ppm [1] | pest or weed control at 200 ppm [2] | pest or weed control at 200 ppm [3]

CN(C)S(=O)(=O)NCc1ccc(-c2noc(C(F)(F)F)n2)c(F)c1 [Compound 2.30, 3-[4-[(dimethyl-sulfamoylamino)methyl]-2-fluoro-phenyl]-5-(trifluoromethyl)-1,2,4-oxadiazole]
≥ 80%: inhibition at 20 ppm [1] | pest or weed control at 200 ppm [2] | pest or weed control at 200 ppm [3]

CN(C)S(=O)(=O)NCc1ccc(-c2noc(C(F)(F)F)n2)cc1F [Compound 2.31, 3-[4-[(dimethyl-sulfamoylamino)methyl]-3-fluoro-phenyl]-5-(trifluoromethyl)-1,2,4-oxadiazole]
≥ 80%: inhibition at 20 ppm [1] | pest or weed control at 200 ppm [2] | pest or weed control at 200 ppm [3]

C=CCS(=O)(=O)NCc1ccc(-c2noc(C(F)(F)F)n2)cc1F [Compound 2.32, N-[[2-fluoro-4-[5-(trifluoromethyl)-1,2,4-oxadiazol-3-yl]phenyl]methyl] prop-2-ene-1-sulfonamide]
≥ 80%: inhibition at 20 ppm [1] | pest or weed control at 200 ppm [2] | pest or weed control at 200 ppm [3]

COCCS(=O)(=O)NCc1ccc(-c2noc(C(F)(F)F)n2)cc1F [Compound 2.34, N-[[2-fluoro-4-[5-(trifluoromethyl)-1,2,4-oxadiazol-3-yl]phenyl]methyl]-2-methoxy-ethanesulfon-amide]
≥ 80%: inhibition at 20 ppm [1] | pest or weed control at 200 ppm [2] | pest or weed control at 200 ppm [3]

C/C=C/S(=O)(=O)NCc1ccc(-c2noc(C(F)(F)F)n2)cc1F [Compound 2.36, (E)-N-[[2-fluoro-4-[5-(trifluoromethyl)-1,2,4-oxadiazol-3-yl]phenyl]methyl] prop-1-ene-1-sulfonamide]
≥ 80%: inhibition at 20 ppm [1] | pest or weed control at 200 ppm [2] | pest or weed control at 200 ppm [3]

Cn1ccc(S(=O)(=O)NCc2ccc(-c3noc(C(F)(F)F)n3)cc2)n1 [Compound 3.10, 1-methyl-N-[[4-[5-(trifluoromethyl)-1,2,4-oxadiazol-3-yl]phenyl]methyl] pyrazole-3-sulfonamide]
≥ 80%: inhibition at 20 ppm [1] | pest or weed control at 200 ppm [2] | pest or weed control at 200 ppm [3]

Cn1ccc(S(=O)(=O)NCc2ccc(-c3noc(C(F)(F)F)n3)c(F)c2)n1 [Compound 3.14, N-[[3-fluoro-4-[5-(trifluoromethyl)-1,2,4-oxadiazol-3-yl]phenyl]methyl]-1-methyl-pyrazole-3-sulfonamide]
≥ 80%: inhibition at 20 ppm [1] | pest or weed control at 200 ppm [2] | pest or weed control at 200 ppm [3]

O=S(=O)(NCc1ccc(-c2noc(C(F)(F)F)n2)c(F)c1)N1CCCC1 [Compound 3.17, N-[[3-fluoro-4-[5-(trifluoromethyl)-1,2,4-oxadiazol-3-yl]phenyl]methyl] pyrrolidine-1-sulfonamide]
≥ 80%: inhibition at 20 ppm [1] | pest or weed control at 200 ppm [2] | pest or weed control at 200 ppm [3]

O=S(=O)(NCc1ccc(-c2noc(C(F)(F)F)n2)c(F)c1)C1CC1 [Compound 3.19, N-[[3-fluoro-4-[5-(trifluoromethyl)-1,2,4-oxadiazol-3-yl]phenyl]methyl] cyclopropanesulfon-amide]
≥ 80%: inhibition at 20 ppm [1] | pest or weed control at 200 ppm [2] | pest or weed control at 200 ppm [3]
